This assay deals with Pfeiffer cell line (diffuse large B cell lymphoma). As to the kind of experiment: Pfeiffer cell proliferation assay (Example B2). Format: cell-based. To be noted: Homo sapiens, Pfeiffer, Pfeiffer cells, [3H]-thymidine. As to the method:
Pfeiffer cell line (diffuse large B cell lymphoma) was purchased from ATCC (Manassas, Va.) and maintained in the culture medium recommended (RPMI and 10% FBS). To measure the anti-proliferation activity of the PI3Kδ submittals, the Pfeiffer cells were plated with the culture medium (2×10^3 cells/well/per 200 μl) into 96-well ultra-low binding plates (Corning, Corning, N.Y.), in the presence or absence of a concentration range of test compounds. After 3-4 days, [^3H]-thymidine (1 μCi/well) (PerkinElmer, Boston, Mass.) in PBS was then added to the cell culture for an additional 12 hrs before the incorporated radioactivity was separated by filtration with water through GF/B filters (Packard Bioscience, Meridenj, Conn.) and measured by liquid scintillation counting with a TopCount (Packard Bioscience). See Table 3 for data related to compounds of the invention.

Structures can show the parent of a compound that is named as a salt.

Regarding `Cc1csc2nc(C(C)Nc3ncnc4[nH]cnc34)c(-c3cc(F)cc(F)c3)c(=O)n12` (stereo not drawn) [Example 12, 6-(3,5-difluorophenyl)-3-methyl-7-[1-(9H-purin-6-ylamino)ethyl]-5H-[1,3]thiazolo[3,2-a]pyrimidin-5-one], the IC50 was 0.1 to 0.5 µM. Compound `Cc1csc2nc(C(C)Nc3ncnc4[nH]cnc34)c(-c3ccccn3)c(=O)n12` (stereo not drawn) [Example 14, 3-methyl-7-[1-(9H-purin-6-ylamino)ethyl]-6-pyridin-2-yl-5H-[1,3]thiazolo[3,2-a]pyrimidin-5-one] returned an IC50 of over 1 µM.

Compound `Cc1csc2nc([C@H](C)Nc3ncnc4[nH]ccc34)c(-c3cc(F)cc(F)c3)c(=O)n12` [Example 17, 6-(3,5-difluorophenyl)-3-methyl-7-[1-(7H-pyrrolo[2,3-d]pyrimidin-4-ylamino)ethyl]-5H-[1,3]thiazolo[3,2-a]pyrimidin-5-one] came in with an IC50 of 0.1 to 0.5 µM.

With `Cc1csc2nc(C(C)Nc3nc(F)nc4[nH]cnc34)c(-c3cc(F)cc(F)c3)c(=O)n12` (stereo not drawn) [Example 18, 6-(3,5-difluorophenyl)-7-{1-[(2-fluoro-9H-purin-6-yl)amino]ethyl}-3-methyl-5H-[1,3]thiazolo[3,2-a]pyrimidin-5-one], the IC50 was in the range of 0.05 to 0.1 µM. Then `Cc1csc2nc(C(C)Nc3ncnc4[nH]cnc34)c(-c3ccncc3)c(=O)n12` (stereo not drawn) [Example 19, 3-methyl-7-[1-(9H-purin-6-ylamino)ethyl]-6-pyridin-4-yl-5H-[1,3]thiazolo[3,2-a]pyrimidin-5-one], with over 1 µM; and `Cc1csc2nc(C(C)Nc3ncnc4[nH]cnc34)c(-c3nccs3)c(=O)n12` (stereo not drawn) [Example 20, 3-methyl-7-[1-(9H-purin-6-ylamino)ethyl]-6-(1,3-thiazol-2-yl)-5H-[1,3]thiazolo[3,2-a]pyrimidin-5-one trifluoroacetic acid salt], with 0.05 to 0.1 µM; and `Cc1csc2nc(C(C)Nc3ncnc4[nH]cnc34)c(-c3cscn3)c(=O)n12` (stereo not drawn) [Example 21, 3-methyl-7-[1-(9H-purin-6-ylamino)ethyl]-6-(1,3-thiazol-4-yl)-5H-[1,3]thiazolo[3,2-a]pyrimidin-5-one trifluoroacetic acid salt], with 0.05 to 0.1 µM. The same measure for `Cc1csc2nc(C(C)Nc3ncnc4[nH]cnc34)c(-c3ccc(F)cc3)c(=O)n12` (stereo not drawn) [Example 22, 6-(4-fluorophenyl)-3-methyl-7-[1-(9H-purin-6-ylamino)ethyl]-5H-[1,3]thiazolo[3,2-a]pyrimidin-5-one trifluoroacetic acid salt]: 0.1 to 0.5 µM. For `CC(Nc1nc(N)nc2[nH]cnc12)c1nc2sccn2c(=O)c1-c1cc(F)cc(F)c1` (stereo not drawn) [Example 24, 7-{1-[(2-amino-9H-purin-6-yl)amino]ethyl}-6-(3,5-difluorophenyl)-5H-[1,3]thiazolo[3,2-a]pyrimidin-5-one], the IC50 lay in the range of 0.1 to 0.5 µM. Then `CC(Nc1ncnc2[nH]cnc12)c1nc2sccn2c(=O)c1-c1cc(F)cc(F)c1` (stereo not drawn) [Example 25, 6-(3,5-difluorophenyl)-7-[1-(9H-purin-6-ylamino)ethyl]-5H-[1,3]thiazolo[3,2-a]pyrimidin-5-one], with 0.5 to 1 µM; and `CC(Nc1nc(N)nc2[nH]cnc12)c1nc2sccn2c(=O)c1-c1ccccc1` (stereo not drawn) [Example 27, 7-{1-[(2-amino-9H-purin-6-yl)amino]ethyl}-6-phenyl-5H-[1,3]thiazolo[3,2-a]pyrimidin-5-one], with 0.1 to 0.5 µM; and `Cc1ccc(-c2c(C(C)Nc3ncnc4[nH]cnc34)nc3scc(C)n3c2=O)cc1` (stereo not drawn) [Example 31, 3-methyl-6-(4-methylphenyl)-7-[1-(9H-purin-6-ylamino)ethyl]-5H-[1,3]thiazolo[3,2-a]pyrimidin-5-one trifluoroacetic acid salt], with 0.1 to 0.5 µM. Compound `Cc1csc2nc(C(C)Nc3nc(N)nc4[nH]cnc34)c(-c3cccc(Cl)c3)c(=O)n12` (stereo not drawn) [Example 32, 7-{1-[(2-amino-9H-purin-6-yl)amino]ethyl}-6-(3-chlorophenyl)-3-methyl-5H-[1,3]thiazolo[3,2-a]pyrimidin-5-one trifluoroacetic acid salt] registered a 50% inhibitory concentration (IC50) of under 0.05 µM. Consider `Cc1csc2nc(C(C)Nc3nc(N)nc4[nH]cnc34)c(-c3ccccc3F)c(=O)n12` (stereo not drawn) [Example 33, 7-{1-[(2-amino-9H-purin-6-yl)amino]ethyl}-6-(2-fluorophenyl)-3-methyl-5H-[1,3]thiazolo[3,2-a]pyrimidin-5-one trifluoroacetic acid salt], for which the half-maximal inhibitory concentration (IC50) was under 0.05 µM. The same measure for `Cc1csc2nc(C(C)Nc3nc(N)nc4[nH]cnc34)c(-c3cccc(F)c3F)c(=O)n12` (stereo not drawn) [Example 34, 7-{1-[(2-amino-9H-purin-6-yl)amino]ethyl}-6-(2,3-difluorophenyl)-3-methyl-5H-[1,3]thiazolo[3,2-a]pyrimidin-5-one trifluoroacetic acid salt]: under 0.05 µM; for `Cc1csc2nc(C(C)Nc3nc(N)nc4[nH]cnc34)c(-c3cc(F)cc(Cl)c3)c(=O)n12` (stereo not drawn) [Example 35, 7-{1-[(2-amino-9H-purin-6-yl)amino]ethyl}-6-(3-chloro-5-fluorophenyl)-3-methyl-5H-[1,3]thiazolo[3,2-a]pyrimidin-5-one trifluoroacetic acid salt]: under 0.05 µM. Then `Cc1csc2nc(C(C)Nc3ncnc4[nH]cnc34)c(-c3cccc(Cl)c3)c(=O)n12` (stereo not drawn) [Example 36, 6-(3-chlorophenyl)-3-methyl-7-[1-(9H-purin-6-ylamino)ethyl]-5H-[1,3]thiazolo[3,2-a]pyrimidin-5-one trifluoroacetic acid salt], with 0.05 to 0.1 µM. For the compound `Cc1csc2nc(C(C)Nc3ncnc4[nH]cnc34)c(-c3cc(F)cc(Cl)c3)c(=O)n12` (stereo not drawn) [Example 37, 6-(3-chloro-5-fluorophenyl)-3-methyl-7-[1-(9H-purin-6-ylamino)ethyl]-5H-[1,3]thiazolo[3,2-a]pyrimidin-5-one trifluoroacetic acid salt], the IC50 fell in the range of 0.05 to 0.1 µM.

`Cc1csc2nc(C(C)Nc3nc(N)nc4[nH]cnc34)c(-c3cncc(F)c3)c(=O)n12` (stereo not drawn) [Example 38, 7-{1-[(2-amino-9H-purin-6-yl)amino]ethyl}-6-(5-fluoropyridin-3-yl)-3-methyl-5H-[1,3]thiazolo[3,2-a]pyrimidin-5-one trifluoroacetic acid salt] yielded a half-maximal inhibitory concentration (IC50) of 0.05 to 0.1 µM. In turn, `Cc1csc2nc(C(C)Nc3ncnc4[nH]cnc34)c(-c3ccccc3F)c(=O)n12` (stereo not drawn) [Example 40, 6-(2-fluorophenyl)-3-methyl-7-[1-(9H-purin-6-ylamino)ethyl]-5H-[1,3]thiazolo[3,2-a]pyrimidin-5-one trifluoroacetic acid salt] gave a half-inhibitory concentration (IC50) of 0.05 to 0.1 µM. In turn, `Cc1csc2nc(C(C)Nc3ncnc4[nH]cnc34)c(-c3cccc(F)c3F)c(=O)n12` (stereo not drawn) [Example 41, 6-(2,3-difluorophenyl)-3-methyl-7-[1-(9H-purin-6-ylamino)ethyl]-5H-[1,3]thiazolo[3,2-a]pyrimidin-5-one trifluoroacetic acid salt] yielded an IC50 of 0.05 to 0.1 µM. Then `Cc1csc2nc(C(C)Nc3ncnc4[nH]cnc34)c(-c3cncc(F)c3)c(=O)n12` (stereo not drawn) [Example 42, 6-(5-fluoropyridin-3-yl)-3-methyl-7-[1-(9H-purin-6-ylamino)ethyl]-5H-[1,3]thiazolo[3,2-a]pyrimidin-5-one trifluoroacetic acid salt], with 0.1 to 0.5 µM. Take `Cc1csc2nc(C(C)Nc3ncnc4[nH]cnc34)c(-c3cc(F)ccc3F)c(=O)n12` (stereo not drawn) [Example 45, 6-(2,5-difluorophenyl)-3-methyl-7-[1-(9H-purin-6-ylamino)ethyl]-5H-[1,3]thiazolo[3,2-a]pyrimidin-5-one trifluoroacetic acid salt]: the IC50 lay in the range of 0.05 to 0.1 µM. `Cc1csc2nc([C@H](C)Nc3ccnc4[nH]cnc34)c(-c3cccc(F)c3)c(=O)n12` [Example 46, 6-(3-Fluorophenyl)-7-[(1S)-1-(3H-imidazo[4,5-b]pyridin-7-ylamino)ethyl]-3-methyl-5H-[1,3]thiazolo[3,2-a]pyrimidin-5-one] had an IC50 of under 0.05 µM. As for `CC(Nc1ncnc2[nH]cnc12)c1nc2scc(C(F)(F)F)n2c(=O)c1-c1cccc(F)c1` (stereo not drawn) [Example 48, 6-(3-Fluorophenyl)-7-[1-(9H-purin-6-ylamino)ethyl]-3-(trifluoromethyl)-5H-[1,3]thiazolo[3,2-a]pyrimidin-5-one], the 50% inhibitory concentration (IC50) lay in the range of 0.05 to 0.1 µM. Then `Cc1cccc2nc(C(C)Nc3ncnc4[nH]cnc34)c(-c3ccccc3)c(=O)n12` (stereo not drawn) [Example 49, 6-Methyl-3-phenyl-2-[1-(9H-purin-6-ylamino)ethyl]-4H-pyrido[1,2-a]pyrimidin-4-one trifluoroacetic acid salt], with 0.05 to 0.1 µM; and `Cc1cccc2nc(C(C)Nc3nc(N)nc4[nH]cnc34)c(-c3ccccc3)c(=O)n12` (stereo not drawn) [Example 50, 2-{1-[(2-Amino-9H-purin-6-yl)amino]ethyl}-6-methyl-3-phenyl-4H-pyrido[1,2-a]pyrimidin-4-one trifluoroacetic acid salt], with under 0.05 µM. `Cc1cccc(-c2c(C(C)Nc3ncnc4[nH]cnc34)nc3cccc(C)n3c2=O)c1` (stereo not drawn) [Example 51, 6-Methyl-3-(3-methylphenyl)-2-[1-(9H-purin-6-ylamino)ethyl]-4H-pyrido[1,2-a]pyrimidin-4-one trifluoroacetic acid salt] yielded an IC50 of 0.1 to 0.5 µM. Take `Cc1cccc(-c2c(C(C)Nc3nc(N)nc4[nH]cnc34)nc3cccc(C)n3c2=O)c1` (stereo not drawn) [Example 52, 2-{1-[(2-Amino-9H-purin-6-yl)amino]ethyl}-6-methyl-3-(3-methylphenyl)-4H-pyrido[1,2-a]pyrimidin-4-one trifluoroacetic acid salt]: the half-maximal inhibitory concentration (IC50) fell in the range of 0.05 to 0.1 µM.

Consider `Cc1cccc2nc(C(C)Nc3ncnc4[nH]cnc34)c(-c3cccc(Cl)c3)c(=O)n12` (stereo not drawn) [Example 53, 3-(3-Chlorophenyl)-6-methyl-2-[1-(9H-purin-6-ylamino)ethyl]-4H-pyrido[1,2-a]pyrimidin-4-one trifluoroacetic acid salt], for which the concentration for half-maximal inhibition (IC50) lay in the range of 0.05 to 0.1 µM.

These data come from patent US10428087B2, “Pyrimidinones as PI3K inhibitors” (Incyte Corporation, priority 2009, dated 2019).
